Our source for the IC50 values is ChEMBL document CHEMBL3714748, “Compounds and compositions as ITPKB inhibitors” (2012).

The structures appear in SMILES notation.

A word on the IC50: it is the concentration that gives 50% inhibition.

Assay [1] addresses T1, Kinase (Mus musculus, UniProt B2RXC2).
T1 sequence (B2RXC2 whole entry): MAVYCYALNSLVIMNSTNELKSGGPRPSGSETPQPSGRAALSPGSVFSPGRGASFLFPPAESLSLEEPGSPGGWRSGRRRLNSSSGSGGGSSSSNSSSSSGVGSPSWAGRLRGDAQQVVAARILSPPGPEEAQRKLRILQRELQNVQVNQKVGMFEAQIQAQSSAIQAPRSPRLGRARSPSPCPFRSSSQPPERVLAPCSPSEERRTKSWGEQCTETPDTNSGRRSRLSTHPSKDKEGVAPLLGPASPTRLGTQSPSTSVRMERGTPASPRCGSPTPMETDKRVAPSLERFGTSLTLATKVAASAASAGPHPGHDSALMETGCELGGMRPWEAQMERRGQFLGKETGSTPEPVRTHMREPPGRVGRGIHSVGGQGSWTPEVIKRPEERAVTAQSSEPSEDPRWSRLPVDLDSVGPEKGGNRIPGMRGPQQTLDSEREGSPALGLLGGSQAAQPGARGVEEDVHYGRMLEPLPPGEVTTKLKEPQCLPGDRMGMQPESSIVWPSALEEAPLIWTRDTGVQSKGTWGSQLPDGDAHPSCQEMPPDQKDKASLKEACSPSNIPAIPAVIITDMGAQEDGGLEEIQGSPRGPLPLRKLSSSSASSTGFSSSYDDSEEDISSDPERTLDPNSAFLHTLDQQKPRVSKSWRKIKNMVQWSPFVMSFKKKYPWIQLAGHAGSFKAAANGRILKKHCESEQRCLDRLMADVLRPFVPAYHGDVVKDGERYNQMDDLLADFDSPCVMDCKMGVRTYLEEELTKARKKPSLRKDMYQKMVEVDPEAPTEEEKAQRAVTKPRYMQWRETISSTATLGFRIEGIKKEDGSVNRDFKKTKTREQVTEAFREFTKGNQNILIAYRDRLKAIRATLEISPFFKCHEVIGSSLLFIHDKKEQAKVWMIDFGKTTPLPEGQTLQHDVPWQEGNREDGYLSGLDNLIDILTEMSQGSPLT
The assay is described as follows: Inhibition of mouse ITPKb (640 to 942 residues) expressed in Escherichia coli HK100 assessed as reduction in IP3 phosphorylation incubated for 60 mins by kinase-Glo ATP depletion assay. For orientation: Kinase-Glo measures the ATP left after a reaction by luminescence.

The target of assay [2] is T2, Inositol-trisphosphate 3-kinase B (Homo sapiens, UniProt P27987).
T2 sequence (P27987 whole entry): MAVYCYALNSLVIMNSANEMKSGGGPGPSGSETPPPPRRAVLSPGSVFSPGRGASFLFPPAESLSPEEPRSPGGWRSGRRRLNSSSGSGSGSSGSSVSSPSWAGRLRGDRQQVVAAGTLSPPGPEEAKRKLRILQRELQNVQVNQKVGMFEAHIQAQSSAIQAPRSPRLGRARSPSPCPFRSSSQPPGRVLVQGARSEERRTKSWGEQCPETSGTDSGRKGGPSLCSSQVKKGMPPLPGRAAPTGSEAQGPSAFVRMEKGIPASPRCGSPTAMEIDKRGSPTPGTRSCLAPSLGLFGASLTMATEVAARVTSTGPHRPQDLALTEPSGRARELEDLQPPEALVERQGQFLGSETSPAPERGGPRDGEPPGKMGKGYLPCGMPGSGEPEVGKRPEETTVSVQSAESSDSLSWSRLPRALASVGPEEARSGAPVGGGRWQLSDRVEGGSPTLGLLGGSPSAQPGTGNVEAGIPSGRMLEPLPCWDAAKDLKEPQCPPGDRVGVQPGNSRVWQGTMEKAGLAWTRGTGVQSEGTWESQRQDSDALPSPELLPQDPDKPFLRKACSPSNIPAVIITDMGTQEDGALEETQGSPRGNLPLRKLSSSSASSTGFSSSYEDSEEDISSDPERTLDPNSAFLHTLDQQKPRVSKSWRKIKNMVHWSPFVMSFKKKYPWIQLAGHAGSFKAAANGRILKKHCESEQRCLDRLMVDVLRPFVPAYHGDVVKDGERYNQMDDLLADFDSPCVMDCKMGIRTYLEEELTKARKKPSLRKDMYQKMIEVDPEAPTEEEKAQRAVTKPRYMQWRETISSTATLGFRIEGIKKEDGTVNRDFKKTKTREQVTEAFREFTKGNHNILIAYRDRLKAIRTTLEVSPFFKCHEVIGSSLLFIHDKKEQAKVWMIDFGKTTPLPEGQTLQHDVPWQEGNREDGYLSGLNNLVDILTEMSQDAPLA
The assay is described as follows: Inhibition of ITPKb in human Jurkat cells assessed as reduction in conversion of IP3 to IP4 using [3H]-myo-inositol incubated for 5 mins by beta-RAM radio-HPLC method. It is filed as cell-based.

As to `C[C@@H]1CN(Cc2c[nH]nc2-c2ccc3c(c2)CNC(=O)O3)CCN1c1cc(C#N)ccn1`, the half-inhibitory concentration (IC50) in assay [1] was less than 100 nM; in assay [2], less than 500 nM.
In the same order, the values of `O=C1NCc2cc(-c3n[nH]cc3CN3C4CC3CN(c3ccc(C(F)(F)F)cn3)C4)ccc2O1` are less than 100 nM and less than 500 nM.
In the same order, the values of `Cc1cccc(N2CCN(Cc3c[nH]nc3-c3ccc4[nH]c(=O)oc4c3)CC2)c1C` are less than 100 nM and less than 500 nM.
For `C[C@@H]1CN(Cc2c[nH]nc2-c2ccc3c(c2)CNC(=O)O3)CCN1c1ccc(C(F)(F)F)cn1`, the IC50 in assay [1] is less than 100 nM; in assay [2], less than 500 nM.
In the same order, the values of `O=C1NCc2cc(-c3n[nH]cc3CN3CCCN(c4ccc(C(F)(F)F)cn4)CC3)ccc2O1` are less than 100 nM and less than 500 nM.
For `O=C1NCc2cc(-c3n[nH]cc3CN3CCN(c4ccc(C(F)(F)F)cn4)CC3)ccc2O1`, the IC50 in assay [1] is less than 100 nM; in assay [2] it was less than 500 nM.
With `C[C@@H]1CN(Cc2c[nH]nc2-c2ccc3c(c2)C(=O)NC(=O)C3)CCN1c1ccc(C(F)(F)F)cn1`, the IC50 was less than 100 nM in assay [1] and less than 500 nM in assay [2].
In the same order, the values of `C[C@@H]1CN(Cc2c[nH]nc2-c2ccc3c(c2)CNC(=O)O3)CCN1c1ccc(C#N)cn1` are less than 100 nM and less than 500 nM.
Consider `O=C1NCc2cc(-c3n[nH]cc3CN3CCN(c4ccc(C(F)(F)F)cn4)[C@H](CO)C3)ccc2O1`, for which the concentration for half-maximal inhibition (IC50) in assay [1] is less than 100 nM; in assay [2], less than 500 nM.
Consider `C[C@@H]1CN(Cc2c[nH]nc2-c2ccc3c(c2)CNC(=O)O3)CCN1c1ccc(C(F)(F)F)cc1`, for which the IC50 is less than 100 nM in assay [1] and less than 500 nM in assay [2].
In the same order, the values of `Cc1ccc(N2CCN(Cc3c[nH]nc3-c3ccc4c(c3)CNC(=O)O4)C[C@H]2C)nc1` are less than 100 nM and less than 500 nM.
In the same order, the values of `O=C1NCc2cc(-c3n[nH]cc3CN3CCN(c4ccc(C(F)(F)F)cn4)[C@H](C(F)(F)F)C3)ccc2O1` are less than 100 nM and less than 500 nM.
In the same order, the values of `C[C@@H]1CN(Cc2c[nH]nc2-c2ccc3c(c2)CNC(=O)C3)CCN1c1ccc(C(F)(F)F)cn1` are less than 100 nM and less than 500 nM.
Turning to `C[C@H]1CN(Cc2c[nH]nc2-c2ccc3oc(=O)[nH]c(=O)c3c2)CCN1c1ccc(C(F)(F)F)cn1`, the figures for the 50% inhibitory concentration (IC50) in assay [1] and in assay [2] were less than 100 nM and less than 500 nM, respectively.
In the same order, the values of `O=C1NCc2cc(-c3n[nH]cc3CN3C4CCC3CN(c3ccc(C(F)(F)F)cn3)C4)ccc2O1` are less than 100 nM and less than 500 nM.
In the same order, the values of `C[C@H]1CN(Cc2c[nH]nc2-c2ccc3c(c2)CNC(=O)O3)CCN1c1ccc(C(F)(F)F)cn1` are less than 100 nM and less than 500 nM.
On to `C[C@@H]1CN(Cc2c[nH]nc2-c2ccc3c(c2)CNC(=O)O3)CCN1c1ccc(Cl)cn1`, for which the IC50 in assay [1] is less than 100 nM; in assay [2] it was less than 500 nM.
As to `C[C@@H]1CN(Cc2c[nH]nc2-c2ccc3c(c2)C(C)(C)NC(=O)O3)CCN1c1ccc(C(F)(F)F)cn1`, the results for the IC50 in assay [1] and in assay [2] were less than 100 nM and less than 500 nM, respectively.
With `O=c1[nH]c(=O)c2cc(-c3n[nH]cc3CN3C4CCC3CN(c3ccc(C(F)(F)F)cn3)C4)ccc2o1`, the results for the IC50 in assay [1] and in assay [2] were less than 100 nM and less than 500 nM, respectively.
For `O=C1NCc2cc(-c3n[nH]cc3CN3CCN(c4ccc(C(F)(F)F)cn4)C4(CC4)C3)ccc2O1`, the 50% inhibitory concentration (IC50) in assay [1] was less than 100 nM; in assay [2], less than 500 nM.
In the same order, the values of `C[C@@H]1CN(Cc2c[nH]nc2-c2ccc3oc(=O)[nH]c3c2)CCN1c1ccc(C(F)(F)F)cn1` are less than 100 nM and less than 500 nM.
In the same order, the values of `O=C1NCc2cc(-c3n[nH]cc3CN3CCCN(c4ccc(C(F)(F)F)cn4)CC3)ccc2N1` are less than 100 nM and less than 500 nM.
In the same order, the values of `O=C1Cc2ccc(-c3n[nH]cc3CN3CCCN(c4ccc(C(F)(F)F)cn4)CC3)cc2CN1` are less than 100 nM and less than 500 nM.
For the molecule `O=C1NCc2cc(-c3n[nH]cc3CN3CCN(c4ccc(C(F)(F)F)cn4)C(C(F)(F)F)C3)ccc2O1` (stereo not drawn), the half-inhibitory concentration (IC50) in assay [1] was less than 100 nM; in assay [2], less than 500 nM.
In the same order, the values of `O=C1NCc2cc(-c3n[nH]cc3CN3CCN(c4ccc(C(F)(F)F)cn4)C[C@H]3C(=O)O)ccc2O1` are less than 100 nM and less than 500 nM.
Take `C[C@H]1CN(Cc2c[nH]nc2-c2ccc3[nH]c(=O)oc3c2)CCN1c1ccc(C(F)(F)F)cn1`: the IC50 was less than 100 nM in assay [1] and less than 500 nM in assay [2].
In the same order, the values of `C[C@@H]1CN(Cc2c[nH]nc2-c2ccc3[nH]c(=O)oc3c2)CCN1c1ccc(C(F)(F)F)cn1` are less than 100 nM and less than 500 nM.
In the same order, the values of `O=C1NCc2cc(-c3n[nH]cc3CN3CCN(c4ccc(C(F)(F)F)cn4)[C@@H](C(F)(F)F)C3)ccc2O1` are less than 100 nM and less than 500 nM.
In the same order, the values of `O=c1[nH]c(=O)c2cc(-c3n[nH]cc3CN3CCN(c4ccc(C(F)(F)F)cn4)CC3)ccc2o1` are less than 100 nM and less than 500 nM.
With `C[C@@H]1CN(Cc2c[nH]nc2-c2ccc3c(c2)CNC(=O)O3)CCN1c1cccc(C(F)(F)F)c1`, the IC50 in assay [1] is less than 100 nM; in assay [2] it was less than 500 nM.
In the case of `O=C1NCc2cc(-c3n[nH]cc3CN3CCN(c4ccc(C(F)(F)F)cn4)CC3C(F)(F)F)ccc2O1` (stereo not drawn), in assay [1], the concentration for half-maximal inhibition (IC50) is less than 100 nM.
On to `C[C@@H]1CN(Cc2c[nH]nc2-c2ccc3c(c2)CNC(=O)O3)CCN1c1nccc(C(F)(F)F)n1`, for which the IC50 was less than 100 nM in assay [1] and less than 500 nM in assay [2].
Turning to `C[C@@H]1CN(Cc2n[nH]nc2-c2ccc3c(c2)CNC(=O)O3)CCN1c1ccc(C(F)(F)F)cn1`, the results for the half-maximal inhibitory concentration (IC50) in assay [1] and in assay [2] were less than 100 nM and less than 500 nM, respectively.
In the case of `Cc1cccc(N2CCN(Cc3c[nH]nc3-c3ccc4oc(=O)[nH]c(=O)c4c3)CC2)c1C`, the half-maximal inhibitory concentration (IC50) in assay [1] is less than 100 nM; in assay [2], less than 500 nM.
In the same order, the values of `C[C@@H]1CN(Cc2c[nH]nc2-c2ccc3c(c2)CNC(=O)O3)CCN1C1CCCCC1` are less than 100 nM and less than 500 nM.
In the same order, the values of `C[C@@H]1CN(Cc2c[nH]nc2-c2ccc3oc(=O)[nH]c(=O)c3c2)CCN1c1ccc(C(F)(F)F)cn1` are less than 100 nM and less than 500 nM.
In the same order, the values of `O=C1NCc2cc(-c3n[nH]cc3CN3CCN(c4ccc(C(F)(F)F)cn4)C[C@H]3CF)ccc2O1` are less than 100 nM and less than 500 nM.
With `O=C1NCc2cc(-c3n[nH]cc3CN3CCN(c4ccc(C(F)(F)F)cn4)[C@H](CF)C3)ccc2O1`, the figures for the IC50 in assay [1] and in assay [2] were less than 100 nM and less than 500 nM, respectively.
In the same order, the values of `C[C@@H]1CN(Cc2c[nH]nc2-c2ccc3c(c2)CNC(=O)O3)CCN1Cc1ccccc1F` are less than 100 nM and less than 500 nM.
Consider `C[C@@H]1CN(Cc2c[nH]nc2-c2ccc3c(c2)CNC(=O)N3)CCN1c1ccc(C(F)(F)F)cn1`, for which the IC50 in assay [1] was less than 100 nM; in assay [2], less than 500 nM.
`C[C@@H]1CN(Cc2c[nH]nc2-c2ccc3c(c2)CNC(=O)O3)CCN1c1ccc(Cl)cc1`: the IC50 is less than 100 nM in assay [1] and less than 500 nM in assay [2].
With `O=C1NCc2cc(-c3n[nH]cc3CN3CCN(c4ccc(C(F)(F)F)cn4)C[C@H]3CO)ccc2O1`, the concentration for half-maximal inhibition (IC50) in assay [1] was less than 100 nM; in assay [2] it was less than 500 nM.
